Literature values, collected in article PMC7765247 (Bioorganic & medicinal chemistry letters, 2020).

System: PC-3 cells
Settings: anoxia (< 10 ppm oxygen in gas phase); ref Patterson el. al.

SMILES: CS(=O)(=O)OCCN(CCBr)c1c(C(=O)NCCO)cc([N+](=O)[O-])cc1[N+](=O)[O-] [Compound 16, PR-104A]
- hypoxia-selectivity ratio in PC-3 cells: approximately 15
